# Literature values as cited in US10851223B2, “Use of a cyclodextrin polycondensate or a composition comprising such a polycondensate, as a capturing agent” (BIOSTART, priority 2016, dated 2020).
# Details: octanol/water
row,SMILES,Log Kow
1,CN(C)C(=O)Nc1ccc(Cl)c(Cl)c1 [Diuron],2.68
2,Clc1ccc(-c2ccc(Cl)cc2Cl)cc1 [PCB 28],5.62
3,Clc1ccc(Cl)c(-c2cc(Cl)ccc2Cl)c1 [PCB 52],6.12
4,Clc1ccc(Cl)c(-c2cc(Cl)c(Cl)cc2Cl)c1 [PCB 101],6.8
5,Clc1ccc(-c2cc(Cl)c(Cl)cc2Cl)cc1Cl [PCB 118],6.84
6,Clc1cc(Cl)c(-c2ccc(Cl)c(Cl)c2Cl)cc1Cl [PCB 138],7.25
7,Clc1cc(Cl)c(-c2cc(Cl)c(Cl)cc2Cl)cc1Cl [PCB 153],7.21
8,Clc1cc(Cl)c(-c2cc(Cl)c(Cl)c(Cl)c2Cl)cc1Cl [PCB 180],7.7
9,c1ccc2c(c1)c1cccc3ccc4cccc2c4c31 [benzopyrene],6.07
10,CCCCC(CC)COC(=O)c1ccccc1C(=O)OCC(CC)CCCC (stereo not shown) [di(2-ethylhexyl)-phthalate],7.6
